Measurements from US10828315B2 (Madrigal Pharmaceuticals, Inc., priority 2013, dated 2020).
pIC50: −log10 of the molar value.

Legend:
HER2 [1] = assay: HER2 degradation assay with BT-474 cell line (Example 12, FACS); assay type: cell-based, human
HER2 [2] = assay: HER2 degradation in BT-474 cells (Example 3, Methods 1 and 2); assay type: cell-based, human
From the text: This example illustrates how a HER2 degradation assay may be used as a test to determine and select Hsp90-targeting moieties suitable for use in SDC-TRAPs of the invention, and further illustrates the ability of SDC-TRAPs to target cells preferentially expressing Hsp90. Such a test may further be used to determine the Hsp90 binding ability of SDC-TRAPs of the invention, as well as through competitive binding assays and cell-based Hsp90 client protein degradation assays known in the art.
After treatment, each cytoplasmic sample is prepared from 1×10^6 cells by incubation of cell lysis buffer (#9803, Cell Signaling Technology) on ice for 10 minutes. The resulting supernatant used as the cytosol fractions is dissolved with sample buffer for SDS-PAGE and run on a SDS-PAGE gel, blotted onto a nitrocellulose membrane by using semi-dry transfer. Non-specific binding to nitrocellulose is blocked with 5% skim milk in TBS with 0.5% Tween at room temperature for 1 hour, then probed with anti-HER2/ErB2 mAb (rabbit IgG, #2242, Cell Signaling) and anti-Tubulin (T9026, Sigma) as housekeeping control protein. HRP-conjugated goat anti-rabbit IgG (H+L) and HRP-conjugated horse anti-mouse IgG (H+L) are used as secondary Ab (#7074#7076, Cell Signaling) and LumiGLO reagent, 20× Peroxide (#7003, Cell Signaling) is used for visualization. The Hsp90 client protein HER2 is degraded when cells are treated with Hsp90-targeting moieties or SDC-TRAPs of the invention.
BT-474 cells are plated in the interior 60 wells of a 96 well black clear bottom plate (20,000 cells/well) in DMEM medium, with DMEM media in the surrounding 36 wells, and incubated at 37° C. with 5% CO2 overnight. On the second day, concentration response curve source plates are produced (10 point, 3-fold dilution of compounds in DMSO) followed by a 1:30 dilution in an intermediate dilution plate containing DMEM. Compound is transferred from the intermediate plate to the cell plate at a dilution of 1:10. The cells are then incubated at 37° C. with 5% CO2 for 24 hours.
Cells are then fixed in 4% phosphate-buffered paraformaldehyde for 30 minutes at room temperature and then permeabilized by washing five times with 0.1% Triton X-100 in PBS for 5 minutes at room temperature on a shaker. […] Cells are washed five times with 0.1% Tween-20 in PBS for 5 minutes at room temperature on a shaker and incubated with fluorescently-labeled secondary antibody (LI-COR, #926-32211) diluted 1:1000 in blocking buffer, and DRAQ5 nuclear stain (Biostatus Limited, # DRAQ5) diluted 1:10,000, at room temperature on a shaker for 1 hour. Cells are washed 5 times with 0.1% Tween-20 in PBS for 5 minutes at room temperature on a shaker and imaged on a LI-COR Odyssey imaging station. The raw data is normalized to DRAQ5 and the HER2 EC50 is calculated using XLfit™.

[3] = Stability in cell culture media (Example 18); conditions: for Media (5 μM) % Remaining 1 h (37° C.)*: sum of both peaks
Method: 98 μL of DMEM+10% FBS, +1% P/S, +1.5 g/L sodium bicarbonate cell culture media was mixed with 2 μL of DMSO and aliquotted into 96-well plates at 250 μL per 0, 1, 2, and 18 hour time point.
3×50 μL media samples in 96 were held in 96-well plates at −80° C. until the last time point was extracted. 200 μL of methanol containing IS was added and mixed by vortex at 1500 rpm for 1.5 minutes at room temperature. The samples were centrifuged at 4400 rpm for 10 minutes at 8° C.

[4] = Mouse plasma stability protocol, up to 1 h (Examples 16-18); conditions: for % Remaining (1 h): % Remaining of parent after 1 h incubation in mouse plasma at 37° C. (10 μM); for % Remaining (1 h, 37° C.) / Mouse (10 μM) % Remaining 1 h (37° C.)*: mouse plasma; for Mouse (10 μM) % Remaining 1 h (37° C.)*: sum of both peaks; for Peak Area Ratio: SDC-TRAP-0063 incubated in mouse plasma
[5] = tested on: human urinary bladder cancer cell line RT-112; assay: Cytotoxicity assay (CellTiter-Glo, 72 h), RT-112; assay type: cell-based; conditions: RT-112, 72 hours, read-out: Cytotoxicity (IC50, nM) RT-112
Method: (§1) Cytotoxicity of SDC-TRAP molecules was determined in three cancer cell lines. […] 80 μL of CellTiter-Glo was added to each well, followed by room temperature incubation in the dark for 15 minutes. Cell was determined by luminescence. IC50 was calculated using XLfit™ software.

[6] = Metabolite profiling and identification; assay type: in vitro ADME; parameters: key: —: Not detected; conditions: for Metabolite Glucuronidation: M+1 569.3; for Metabolite Hydroxylation + glucuronidatiom: M+1 585.3
From the text: Metabolite Profiling and Identification: Metabolite profiling/identification for SDC-TRAP-0063 (M+1:880.3)

[7] = tested on: human breast cancer cell line BT-474; assay: Cytotoxicity assay (CellTiter-Glo, 72 h), BT-474; assay type: cell-based; conditions: BT-474, 72 hours, read-out: Cytotoxicity (IC50, nM) BT-474
Method: as §1

[8] = mouse, in vivo
[9] = Artificial membrane permeability assay (PAMPA)
[10] = tested on: human urinary bladder cancer cell line SW780; assay: Cytotoxicity assay (CellTiter-Glo, 72 h), SW780; assay type: cell-based; conditions: SW780, 72 hours, read-out: Cytotoxicity (IC50, nM) SW-780
Method: as §1

CCc1c2c(nc3ccc(O)cc13)-c1cc3c(c(=O)n1C2)COC(=O)C3(CC)OC(=O)N(C)CCOCCn1ccc2cc(-n3c(O)nnc3-c3cc(C(C)C)c(O)cc3O)ccc21 (stereo not shown) [SDC-TRAP-0037, 4,11-diethyl-9-hydroxy-3,14-dioxo-3,4,12,14-tetrahydro-1H-pyrano[3′,4′:6,7]indolizino[1,2-b]quinolin-4-yl (2-(2-(5-(3-(2,4-dihydroxy-5-isopropylphenyl)-5-hydroxy-4H-1,2,4-triazol-4-yl)-1H-indol-1-yl)ethoxy)ethyl)(methyl)carbamate]
pIC50 (HER2 [1]): 5.68
pIC50 (HER2 [2]): 5.68
Media (5 μM) % Remaining 19 h (37° C.) [3]: 6%
Media (5 μM) % Remaining 1 h (37° C.)* [3]: 67%
% Remaining (1 h) [4]: 95.3%
% Remaining (1 h, 37° C.) ([4]; 1 h): 95%
Mouse (10 μM) % Remaining 1 h (37° C.)* [4]: 95%

CCc1c2c(nc3ccc(O)cc13)-c1cc3c(c(=O)n1C2)COC(=O)C3(CC)OC(=O)N(C)CCn1ccc2cc(-n3c(O)nnc3-c3cc(C(C)C)c(O)cc3O)ccc21 (stereo not shown) [SDC-TRAP-0038, 4,11-diethyl-9-hydroxy-3,14-dioxo-3,4,12,14-tetrahydro-1H-pyrano[3′,4′:6,7]indolizino[1,2-b]quinolin-4-yl (2-(5-(3-(2,4-dihydroxy-5-isopropylphenyl)-5-hydroxy-4H-1,2,4-triazol-4-yl)-1H-indol-1-yl)ethyl)(methyl)carbamate]
pIC50 (HER2 [1]): < 5.30
pIC50 (HER2 [2]): < 5.30

CC(C)c1cc(-c2nnc(O)n2-c2ccc3c(ccn3CCN(C)C(=O)CCCc3nc4cc(N(CCCl)CCCl)ccc4n3C)c2)c(O)cc1O [SDC-TRAP-0039, (5-(bis(2-chloroethyl)amino)-1-methyl-1H-benzo[d]imidazol-2-yl)-N-(2-(5-(3-(2,4-dihydroxy-5-isopropylphenyl)-5-hydroxy-4H-1,2,4-triazol-4-yl)-1H-indol-1-yl)ethyl)-N-methylbutanamide]
pIC50 (HER2 [1]; BT-474 cells, overnight): 5.53
pIC50 (HER2 [2]): 5.53

CC(C)c1cc(-c2nnc(O)n2-c2ccc3c(ccn3CCOCCN(C)C(=O)CCCc3nc4cc(N(CCCl)CCCl)ccc4n3C)c2)c(O)cc1O [SDC-TRAP-0040, 4-(5-(bis(2-chloroethyl)amino)-1-methyl-1H-benzo[d]imidazol-2-yl)-N-(2-(2-(5-(3-(2,4-dihydroxy-5-isopropylphenyl)-5-hydroxy-4H-1,2,4-triazol-4-yl)-1H-indol-1-yl)ethoxy)ethyl)-N-methylbutanamide]
pIC50 (HER2 [1]; BT-474 cells, overnight): 5.32
pIC50 (HER2 [2]): 5.32

CCc1c2c(nc3ccc(O)cc13)-c1cc3c(c(=O)n1C2)COC(=O)C3(CC)OC(=O)CCC(=O)N1CCC(Cc2ccc(-n3c(O)nnc3-c3cc(C(C)C)c(O)cc3O)cc2)CC1 (stereo not shown) [SDC-TRAP-0042, 4,11-diethyl-9-hydroxy-3,14-dioxo-3,4,12,14-tetrahydro-1H-pyrano[3′,4′:6,7]indolizino[1,2-b]quinolin-4-yl 4-(4-(4-(3-(2,4-dihydroxy-5-isopropylphenyl)-5-hydroxy-4H-1,2,4-triazol-4-yl)benzyl)piperidin-1-yl)-4-oxobutanoate]
pIC50 (HER2 [1]): 5.98
pIC50 (HER2 [2]): 5.98
% Remaining (1 h) [4]: 73.9%
% Remaining (1 h, 37° C.) ([4]; 1 h): 74%

CCc1c2c(nc3ccc(O)cc13)-c1cc3c(c(=O)n1C2)COC(=O)C3(CC)OC(=O)CCC(=O)N1CCN(Cc2ccc(-n3c(O)nnc3-c3cc(C(C)C)c(O)cc3O)cc2)CC1 (stereo not shown) [SDC-TRAP-0043, 4,11-diethyl-9-hydroxy-3,14-dioxo-3,4,12,14-tetrahydro-1H-pyrano[3′,4′:6,7]indolizino[1,2-b]quinolin-4-yl 4-(4-(4-(3-(2,4-dihydroxy-5-isopropylphenyl)-5-hydroxy-4H-1,2,4-triazol-4-yl)benzyl)piperazin-1-yl)-4-oxobutanoate]
pIC50 (HER2 [1]): 5.67
pIC50 (HER2 [2]): 5.67

CCc1c2c(nc3ccc(OC(=O)N(C)CCCCN4CCN(Cc5ccc(-n6c(O)nnc6-c6cc(C(C)C)c(O)cc6O)cc5)CC4)cc13)-c1cc3c(c(=O)n1C2)COC(=O)C3(O)CC (stereo not shown) [SDC-TRAP-0044, 4,11-diethyl-4-hydroxy-3,14-dioxo-3,4,12,14-tetrahydro-1H-pyrano[3′,4′:6,7]indolizino[1,2-b]quinolin-9-yl (4-(4-(4-(3-(2,4-dihydroxy-5-isopropylphenyl)-5-hydroxy-4H-1,2,4-triazol-4-yl)benzyl)piperazin-1-yl)butyl)(methyl)carbamate]
pIC50 (HER2 [1]): 6.22
pIC50 (HER2 [2]): 6.22
Media (5 μM) % Remaining 19 h (37° C.) [3]: 41%
Media (5 μM) % Remaining 1 h (37° C.)* [3]: 50%
% Remaining (1 h) [4]: 60.6%
% Remaining (1 h, 37° C.) ([4]; 1 h): 61%
Mouse (10 μM) % Remaining 1 h (37° C.)* [4]: 61%

CCc1c2c(nc3ccc(O)cc13)-c1cc3c(c(=O)n1C2)COC(=O)C3(CC)OC(=O)N1CCN(Cc2ccc(-n3c(O)nnc3-c3cc(C(C)C)c(O)cc3O)cc2)CC1 (stereo not shown) [SDC-TRAP-0047, 4,11-diethyl-9-hydroxy-3,14-dioxo-3,4,12,14-tetrahydro-1H-pyrano[3′,4′:6,7]indolizino[1,2-b]quinolin-4-yl 4-(4-(3-(2,4-dihydroxy-5-isopropylphenyl)-5-hydroxy-4H-1,2,4-triazol-4-yl)benzyl)piperazine-1-carboxylate]
pIC50 (HER2 [1]): 6.06
pIC50 (HER2 [2]): 6.06
% Remaining (1 h) [4]: 88.9%
% Remaining (1 h, 37° C.) ([4]; 1 h): 89%

CCc1c2c(nc3ccc(O)cc13)-c1cc3c(c(=O)n1C2)COC(=O)[C@]3(O)CC [SN-38, reference compound]
IC50 [5]: < 10 nM
Metabolite Glucuronidation ([6]; Hepatocytes Dog): √
Metabolite Hydroxylation + glucuronidatiom ([6]; Hepatocytes Dog): —
Metabolite Glucuronidation ([6]; Hepatocytes Human): √
Metabolite Hydroxylation + glucuronidatiom ([6]; Hepatocytes Human): √
Metabolite Glucuronidation ([6]; Hepatocytes Monkey): √
Metabolite Hydroxylation + glucuronidatiom ([6]; Hepatocytes Monkey): √
Metabolite Glucuronidation ([6]; Hepatocytes Mouse): √
Metabolite Hydroxylation + glucuronidatiom ([6]; Hepatocytes Mouse): —
Metabolite Glucuronidation ([6]; Hepatocytes Rat): √
Metabolite Hydroxylation + glucuronidatiom ([6]; Hepatocytes Rat): —
Media (5 μM) % Remaining 19 h (37° C.) [3]: 52%
Media (5 μM) % Remaining 1 h (37° C.)* [3]: 82%
IC50 [7]: > 10000 nM
Plasma Conc. [8]: BQL
Tumor Conc. [8]: BQL
Mass Retention ([9]; incubation 5 h, first table): 38.2%
Mass Retention ([9]; same protocol, second table): 46.6%
% Remaining (1 h) [4]: 63.5%
Peak Area Ratio ([4]; 0 h): 0.0616
Peak Area Ratio ([4]; 0.5 h): 4.13
Peak Area Ratio ([4]; 1 h): 4.46
Peak Area Ratio ([4]; […]): 1.37
Mouse (10 μM) % Remaining 1 h (37° C.)* [4]: 64%
IC50 [10]: 38 nM
